According to ChEMBL document CHEMBL5649169 (ChemMedChem, 2018):

How the values were obtained:
[1] = biological target: Fructose-bisphosphate aldolase A (Homo sapiens) (UniProt P04075)
[2] = biological target: AP-1 complex subunit mu-1 (Homo sapiens) (UniProt Q9BXS5)
[3] = biological target: AP-2 complex subunit sigma (Homo sapiens) (UniProt P53680)
[4] = biological target: V-type proton ATPase subunit H (Homo sapiens) (UniProt Q9UI12)
[5] = biological target: Aurora kinase B (Homo sapiens) (UniProt Q96GD4)
[6] = biological target: Cell division cycle 7-related protein kinase (Homo sapiens) (UniProt O00311)
[7] = biological target: Cyclin-dependent kinase 5 (Homo sapiens) (UniProt Q00535)
[8] = biological target: Desmoplakin (Homo sapiens) (UniProt P15924)
[9] = biological target: Translation initiation factor eIF2B subunit gamma (Homo sapiens) (UniProt Q9NR50)
[10] = biological target: Endoplasmic reticulum aminopeptidase 1 (Homo sapiens) (UniProt Q9NZ08)
[11] = biological target: Exocyst complex component 1 (Homo sapiens) (UniProt Q9NV70)
[12] = biological target: Tyrosine-protein kinase FRK (Homo sapiens) (UniProt P42685)
[13] = biological target: Gem-associated protein 5 (Homo sapiens) (UniProt Q8TEQ6)
[14] = biological target: Glycogen synthase kinase-3 alpha (Homo sapiens) (UniProt P49840)
[15] = biological target: Importin-5 (Homo sapiens) (UniProt O00410)
[16] = biological target: Lipopolysaccharide-responsive and beige-like anchor protein (Homo sapiens) (UniProt P50851)
[17] = biological target: Mitogen-activated protein kinase 14 (Homo sapiens) (UniProt Q16539)
[18] = biological target: CDK-activating kinase assembly factor MAT1 (Homo sapiens) (UniProt P51948)
[19] = biological target: Small ribosomal subunit protein mS23 (Homo sapiens) (UniProt Q9Y3D9)
[20] = biological target: RNA cytosine C(5)-methyltransferase NSUN2 (Homo sapiens) (UniProt Q08J23)
[21] = biological target: Oxysterol-binding protein-related protein 8 (Homo sapiens) (UniProt Q9BZF1)
[22] = biological target: Phosphoprotein associated with glycosphingolipid-enriched microdomains 1 (Homo sapiens) (UniProt Q9NWQ8)
[23] = biological target: Serine/threonine-protein kinase PAK 2 (Homo sapiens) (UniProt Q13177)
[24] = biological target: Serine/threonine-protein kinase PAK 6 (Homo sapiens) (UniProt Q9NQU5)
[25] = biological target: Profilin-1 (Homo sapiens) (UniProt P07737)
[26] = biological target: Protein kinase C delta type (Homo sapiens) (UniProt Q05655)
[27] = biological target: Proteasome subunit alpha type-5 (Homo sapiens) (UniProt P28066)
[28] = biological target: Proteasome subunit alpha type-7 (Homo sapiens) (UniProt O14818)
[29] = biological target: 26S proteasome regulatory subunit 8 (Homo sapiens) (UniProt P62195)
[30] = biological target: Uncharacterized protein FLJ45252 (Homo sapiens) (UniProt Q6ZSR9)
[31] = biological target: Large ribosomal subunit protein uL5 (Homo sapiens) (UniProt P62913)
[32] = biological target: Large ribosomal subunit protein eL14 (Homo sapiens) (UniProt P50914)
[33] = biological target: Large ribosomal subunit protein uL15 (Homo sapiens) (UniProt P46776)
[34] = biological target: Large ribosomal subunit protein eL30 (Homo sapiens) (UniProt P62888)
[35] = biological target: Small ribosomal subunit protein eS10 (Homo sapiens) (UniProt P46783)
[36] = biological target: Protein transport protein Sec24C (Homo sapiens) (UniProt P53992)
[37] = biological target: Protein transport protein Sec61 subunit beta (Homo sapiens) (UniProt P60468)
[38] = biological target: High affinity cationic amino acid transporter 1 (Homo sapiens) (UniProt P30825)
[39] = biological target: Signal recognition particle subunit SRP68 (Homo sapiens) (UniProt Q9UHB9)
[40] = biological target: Serine/threonine-protein kinase TAO1 (Homo sapiens) (UniProt Q7L7X3)
[41] = biological target: Nucleoprotein TPR (Homo sapiens) (UniProt P12270)
[42] = biological target: Tetratricopeptide repeat protein 14 (Homo sapiens) (UniProt Q96N46)
[43] = biological target: Tubulin alpha-1B chain (Homo sapiens) (UniProt P68363)
[44] = biological target: Ubiquitin-associated protein 2 (Homo sapiens) (UniProt Q5T6F2)
[45] = biological target: Unhealthy ribosome biogenesis protein 2 homolog (Homo sapiens) (UniProt Q14146)
[46] = biological target: 5'-3' exoribonuclease 2 (Homo sapiens) (UniProt Q9H0D6)
Note: assay method not described here.

Cyclin-dependent kinase 5 (Homo sapiens), sequence (Q00535 whole entry, looked up): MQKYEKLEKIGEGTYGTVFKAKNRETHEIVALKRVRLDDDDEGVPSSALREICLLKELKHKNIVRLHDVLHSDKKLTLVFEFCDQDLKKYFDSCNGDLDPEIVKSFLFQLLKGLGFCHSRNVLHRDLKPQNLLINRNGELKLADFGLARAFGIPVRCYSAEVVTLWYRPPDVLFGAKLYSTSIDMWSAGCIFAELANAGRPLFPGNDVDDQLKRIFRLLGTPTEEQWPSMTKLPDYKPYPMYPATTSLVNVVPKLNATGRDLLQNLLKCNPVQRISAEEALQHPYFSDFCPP
Proteasome subunit alpha type-7 (Homo sapiens), sequence (O14818 whole entry): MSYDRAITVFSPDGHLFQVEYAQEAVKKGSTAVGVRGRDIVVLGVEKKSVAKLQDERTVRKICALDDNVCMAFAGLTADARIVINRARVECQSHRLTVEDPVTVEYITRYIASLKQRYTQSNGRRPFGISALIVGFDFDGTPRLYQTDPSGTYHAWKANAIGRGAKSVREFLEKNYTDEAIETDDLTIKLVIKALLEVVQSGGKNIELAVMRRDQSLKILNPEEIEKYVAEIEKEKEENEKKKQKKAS
Desmoplakin (Homo sapiens), sequence (P15924 whole entry): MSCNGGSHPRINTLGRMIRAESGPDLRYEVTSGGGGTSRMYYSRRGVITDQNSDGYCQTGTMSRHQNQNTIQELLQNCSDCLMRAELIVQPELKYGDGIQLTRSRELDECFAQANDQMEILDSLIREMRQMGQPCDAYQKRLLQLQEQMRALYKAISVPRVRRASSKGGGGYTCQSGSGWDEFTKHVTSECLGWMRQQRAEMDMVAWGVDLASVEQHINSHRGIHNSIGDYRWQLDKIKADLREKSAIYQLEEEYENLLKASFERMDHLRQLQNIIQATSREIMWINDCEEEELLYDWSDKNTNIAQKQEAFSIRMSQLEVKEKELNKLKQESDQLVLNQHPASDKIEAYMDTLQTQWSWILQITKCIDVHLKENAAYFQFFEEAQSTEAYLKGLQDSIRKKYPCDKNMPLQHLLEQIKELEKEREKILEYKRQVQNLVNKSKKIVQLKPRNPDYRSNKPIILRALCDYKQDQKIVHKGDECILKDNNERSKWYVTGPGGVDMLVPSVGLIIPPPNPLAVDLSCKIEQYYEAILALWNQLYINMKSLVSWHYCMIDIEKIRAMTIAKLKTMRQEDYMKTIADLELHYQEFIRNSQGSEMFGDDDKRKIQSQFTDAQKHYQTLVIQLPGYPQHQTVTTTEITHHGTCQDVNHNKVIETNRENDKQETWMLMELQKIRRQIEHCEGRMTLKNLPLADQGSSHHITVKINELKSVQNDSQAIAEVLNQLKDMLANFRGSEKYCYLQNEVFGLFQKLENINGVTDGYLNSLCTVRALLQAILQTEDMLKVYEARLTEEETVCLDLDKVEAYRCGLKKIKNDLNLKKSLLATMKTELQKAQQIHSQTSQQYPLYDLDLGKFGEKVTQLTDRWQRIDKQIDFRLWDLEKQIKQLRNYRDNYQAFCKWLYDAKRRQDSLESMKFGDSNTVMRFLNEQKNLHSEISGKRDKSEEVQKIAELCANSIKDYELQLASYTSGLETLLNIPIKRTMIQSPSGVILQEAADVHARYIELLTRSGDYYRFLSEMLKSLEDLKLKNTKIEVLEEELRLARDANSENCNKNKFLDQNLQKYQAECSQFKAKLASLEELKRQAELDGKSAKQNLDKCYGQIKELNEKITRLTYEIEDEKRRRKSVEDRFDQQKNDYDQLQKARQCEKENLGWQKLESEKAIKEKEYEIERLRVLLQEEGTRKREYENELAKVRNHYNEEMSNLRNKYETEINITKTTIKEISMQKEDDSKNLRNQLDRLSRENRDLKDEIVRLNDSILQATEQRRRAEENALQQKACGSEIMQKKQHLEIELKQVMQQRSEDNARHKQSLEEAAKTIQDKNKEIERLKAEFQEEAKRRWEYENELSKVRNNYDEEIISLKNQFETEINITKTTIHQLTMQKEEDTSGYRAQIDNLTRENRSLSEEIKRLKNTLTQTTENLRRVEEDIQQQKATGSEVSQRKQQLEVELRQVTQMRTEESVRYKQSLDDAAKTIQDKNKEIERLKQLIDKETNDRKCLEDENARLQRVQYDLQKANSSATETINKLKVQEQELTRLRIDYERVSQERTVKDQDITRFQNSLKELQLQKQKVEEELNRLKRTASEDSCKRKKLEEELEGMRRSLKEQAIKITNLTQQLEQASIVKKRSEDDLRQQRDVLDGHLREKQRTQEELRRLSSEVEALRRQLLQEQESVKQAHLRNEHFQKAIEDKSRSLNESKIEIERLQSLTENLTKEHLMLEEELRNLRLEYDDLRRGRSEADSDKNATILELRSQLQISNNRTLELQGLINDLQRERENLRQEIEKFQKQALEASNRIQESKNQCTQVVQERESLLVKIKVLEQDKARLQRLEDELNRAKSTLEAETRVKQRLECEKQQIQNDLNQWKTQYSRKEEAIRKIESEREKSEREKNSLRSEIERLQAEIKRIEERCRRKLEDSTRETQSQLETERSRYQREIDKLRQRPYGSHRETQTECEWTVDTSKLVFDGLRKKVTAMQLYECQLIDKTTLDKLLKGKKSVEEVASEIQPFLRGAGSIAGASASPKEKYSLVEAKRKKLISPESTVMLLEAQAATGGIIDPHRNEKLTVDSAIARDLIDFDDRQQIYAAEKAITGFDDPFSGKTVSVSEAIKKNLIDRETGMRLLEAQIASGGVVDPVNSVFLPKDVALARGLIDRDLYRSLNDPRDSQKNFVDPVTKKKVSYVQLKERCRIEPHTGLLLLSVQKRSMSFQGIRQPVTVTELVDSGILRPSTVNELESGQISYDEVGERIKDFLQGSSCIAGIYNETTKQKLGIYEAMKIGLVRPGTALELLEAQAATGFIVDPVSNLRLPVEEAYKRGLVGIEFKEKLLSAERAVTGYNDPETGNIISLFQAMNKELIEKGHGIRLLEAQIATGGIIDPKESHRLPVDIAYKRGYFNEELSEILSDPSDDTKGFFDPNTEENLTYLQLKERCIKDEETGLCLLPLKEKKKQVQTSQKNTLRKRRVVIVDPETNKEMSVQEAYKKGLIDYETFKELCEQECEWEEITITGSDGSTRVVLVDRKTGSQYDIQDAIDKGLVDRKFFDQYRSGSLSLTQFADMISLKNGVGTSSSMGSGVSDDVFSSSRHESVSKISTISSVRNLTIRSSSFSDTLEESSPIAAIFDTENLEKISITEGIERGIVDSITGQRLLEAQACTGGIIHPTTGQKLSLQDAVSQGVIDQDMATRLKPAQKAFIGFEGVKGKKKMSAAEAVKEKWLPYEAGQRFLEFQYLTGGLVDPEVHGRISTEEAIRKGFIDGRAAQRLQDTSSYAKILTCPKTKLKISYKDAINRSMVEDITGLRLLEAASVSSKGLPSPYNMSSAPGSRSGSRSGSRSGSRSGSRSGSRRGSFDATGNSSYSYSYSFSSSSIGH
26S proteasome regulatory subunit 8 (Homo sapiens), sequence (P62195 whole entry): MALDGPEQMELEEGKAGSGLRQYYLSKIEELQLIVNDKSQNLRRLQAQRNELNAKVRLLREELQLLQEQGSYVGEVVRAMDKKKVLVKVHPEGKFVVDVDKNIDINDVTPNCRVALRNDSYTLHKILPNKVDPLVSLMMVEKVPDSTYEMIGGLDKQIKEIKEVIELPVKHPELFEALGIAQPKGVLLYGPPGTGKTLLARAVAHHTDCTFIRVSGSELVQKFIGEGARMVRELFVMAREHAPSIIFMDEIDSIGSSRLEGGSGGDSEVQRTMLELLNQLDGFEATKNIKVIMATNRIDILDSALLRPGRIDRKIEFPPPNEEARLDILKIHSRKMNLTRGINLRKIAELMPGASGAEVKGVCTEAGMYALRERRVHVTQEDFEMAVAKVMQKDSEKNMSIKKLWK
Aurora kinase B (Homo sapiens), sequence (Q96GD4 whole entry): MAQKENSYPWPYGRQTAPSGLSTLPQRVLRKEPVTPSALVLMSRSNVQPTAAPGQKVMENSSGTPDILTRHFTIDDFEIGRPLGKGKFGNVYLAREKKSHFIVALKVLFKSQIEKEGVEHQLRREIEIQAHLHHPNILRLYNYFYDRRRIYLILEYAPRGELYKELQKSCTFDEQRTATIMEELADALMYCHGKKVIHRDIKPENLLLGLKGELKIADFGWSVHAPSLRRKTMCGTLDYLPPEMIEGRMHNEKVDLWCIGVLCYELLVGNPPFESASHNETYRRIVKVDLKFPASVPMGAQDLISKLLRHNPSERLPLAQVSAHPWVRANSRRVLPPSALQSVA
Phosphoprotein associated with glycosphingolipid-enriched microdomains 1 (Homo sapiens), sequence (Q9NWQ8 whole entry): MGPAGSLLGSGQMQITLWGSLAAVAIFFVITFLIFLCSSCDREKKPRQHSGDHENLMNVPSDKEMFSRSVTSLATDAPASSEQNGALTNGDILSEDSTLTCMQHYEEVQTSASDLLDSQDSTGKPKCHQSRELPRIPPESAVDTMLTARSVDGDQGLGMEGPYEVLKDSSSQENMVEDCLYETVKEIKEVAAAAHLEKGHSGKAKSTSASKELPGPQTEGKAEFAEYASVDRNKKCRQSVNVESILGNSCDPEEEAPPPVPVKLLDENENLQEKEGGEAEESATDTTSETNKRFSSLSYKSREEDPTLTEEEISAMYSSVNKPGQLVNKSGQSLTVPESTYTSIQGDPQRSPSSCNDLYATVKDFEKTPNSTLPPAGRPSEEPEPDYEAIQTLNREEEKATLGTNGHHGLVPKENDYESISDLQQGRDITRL
V-type proton ATPase subunit H (Homo sapiens), sequence (Q9UI12 whole entry): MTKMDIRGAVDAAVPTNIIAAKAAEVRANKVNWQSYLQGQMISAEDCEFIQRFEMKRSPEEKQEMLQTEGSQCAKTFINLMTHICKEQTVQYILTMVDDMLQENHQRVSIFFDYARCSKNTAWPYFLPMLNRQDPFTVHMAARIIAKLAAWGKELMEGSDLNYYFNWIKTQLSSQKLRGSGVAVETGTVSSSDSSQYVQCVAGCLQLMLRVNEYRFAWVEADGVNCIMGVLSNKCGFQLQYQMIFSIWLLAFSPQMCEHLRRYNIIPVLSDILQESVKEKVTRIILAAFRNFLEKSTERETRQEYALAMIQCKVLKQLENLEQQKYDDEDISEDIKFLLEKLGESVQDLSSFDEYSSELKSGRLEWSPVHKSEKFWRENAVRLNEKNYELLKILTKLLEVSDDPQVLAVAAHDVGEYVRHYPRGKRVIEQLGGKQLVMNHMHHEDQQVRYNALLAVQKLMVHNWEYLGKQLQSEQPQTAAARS

Cc1ccc(C(=O)Nc2cccc(C(F)(F)F)c2)cc1Nc1nc(-c2cccnc2)nc2c1cnn2C
ED50 [1]: 3970 nM | ED50 [2]: 55.2 nM | ED50 [3]: 678 nM | ED50 [4]: 1.75 nM | ED50 [5]: 11600 nM | ED50 [6]: 1.27 nM | ED50 [7]: 5060 nM | ED50 [8]: 22300 nM | ED50 [9]: 10300 nM | ED50 [10]: 6220 nM | ED50 [11]: 11.2 nM | ED50 [12]: 2160 nM | ED50 [13]: 105000 nM | ED50 [14]: 3.63 nM | ED50 [15]: 4.45 nM | ED50 [16]: 982000 nM | ED50 [17]: 1000 nM | ED50 [18]: 9.72 nM | ED50 [19]: 20200 nM | ED50 [20]: 48700 nM | ED50 [21]: 128 nM | ED50 [22]: 16800 nM | ED50 [23]: 19600 nM | ED50 [24]: 146 nM | ED50 [25]: 3950 nM | ED50 [26]: 3810 nM | ED50 [27]: 2110 nM | ED50 [28]: 94200 nM | ED50 [29]: 7400 nM | ED50 [30]: 248 nM | ED50 [31]: 39.5 nM | ED50 [32]: 187 nM | ED50 [33]: 5950 nM | ED50 [34]: 25.7 nM | ED50 [35]: 42 nM | ED50 [36]: 11.6 nM | ED50 [37]: 11500 nM | ED50 (Homo sapiens): 70000 nM | ED50 [38]: 4060 nM | ED50 [39]: 4090 nM | ED50 [40]: 11200 nM | ED50 [41]: 10400 nM | ED50 [42]: 1900 nM | ED50 [43]: 1730 nM | ED50 [44]: 111000 nM | ED50 [45]: 2880 nM | ED50 [46]: 547 nM

Cc1ccc(C(=O)Nc2cccc(C(F)(F)F)c2)cc1Nc1nc(-c2cccnc2)nc2nn(C)cc12
ED50 [1]: 71.5 nM | ED50 [2]: 91.4 nM | ED50 [3]: 17.9 nM | ED50 [4]: 2380 nM | ED50 [5]: 128 nM | ED50 [6]: 869 nM | ED50 [7]: 17200 nM | ED50 [8]: 288 nM | ED50 [9]: 332 nM | ED50 [10]: 8490 nM | ED50 [11]: 79.4 nM | ED50 [12]: 8670 nM | ED50 [13]: 232 nM | ED50 [14]: 88.5 nM | ED50 [15]: 342 nM | ED50 [16]: 167 nM | ED50 [17]: 18200 nM | ED50 [18]: 3400 nM | ED50 [19]: 11400 nM | ED50 [20]: 0.187 nM | ED50 [21]: 650000 nM | ED50 [22]: 1770 nM | ED50 [23]: 42500 nM | ED50 [24]: 526 nM | ED50 [25]: 3980 nM | ED50 [26]: 0.136 nM | ED50 [27]: 214000 nM | ED50 [28]: 17500 nM | ED50 [29]: 443 nM | ED50 [30]: 0.276 nM | ED50 [31]: 1630 nM | ED50 [32]: 7310 nM | ED50 [33]: 16700 nM | ED50 [34]: 1580 nM | ED50 [35]: 42.5 nM | ED50 [36]: 1460 nM | ED50 [37]: 3000 nM | ED50 (Homo sapiens): 17700 nM | ED50 [38]: 1680 nM | ED50 [39]: 18.8 nM | ED50 [40]: 17.8 nM | ED50 [41]: 7760 nM | ED50 [42]: 2320 nM | ED50 [43]: 3870 nM | ED50 [44]: 4500 nM | ED50 [45]: 2120 nM | ED50 [46]: 11.4 nM
